Test results from PMC9115719, “Spatial Expression Analysis of Odorant Binding Proteins in Both Sexes of the Aphid Parasitoid Aphidius gifuensis and Their Ligand Binding Properties” (Frontiers in Physiology, 2022).
“And” between values parts separate entries of the source, which are not always exact repeats. Identical values can stand only once. Like-named read-outs stand apart in the source and are kept apart here.

Experiments:
AgifOBP9 [1] = molecular target: T1, AgifOBP9 (Aphidius gifuensis, UniProt A0A3Q9EL79, L121S); test: Fluorescence competitive binding assay (1-NPN displacement) with recombinant AgifOBP9; details: for Ki: Tris-HCl pH 7.4, Ki = [IC50]/(1+[1-NPN]/K1-NPN), means ± SD, three replicates
Method: (§1) Fluorescence intensity was recorded in a right angle configuration on a Lengguang 970CRT spectrofluorimeter (Shanghai Jingmi, China) at room temperature using a 1 cm light path fluorimeter quartz cuvette. A slit width of 10 nm was selected for both excitation and emission. The measured fluorescence intensities were corrected for both blank signals due to protein emission and scattered excitation light. The spectral data were processed using the software 970CRT 2.0l. Fluorescence binding experiments were conducted in […] Tris-HCl buffer, pH 7.4, at room temperature. The binding affinity for N-phenyl-1-naphthylamine (1-NPN) was determined by adding aliquots of a 1 mM stock solution of 1-NPN dissolved in spectrophotometric grade methanol into a 2 μM protein sample. The fluorescence of 1-NPN was excited at 337 nm, and emission was recorded between 350 and 500 nm. Spectra were recorded with a high-speed scan. All ligands used in competitive experiments were dissolved in spectrophotometric grade methanol. In competition assays, aliquots of the competing ligands were added into a 2 μM protein solution in the presence of a given concentration of 1-NPN. To estimate the binding affinities of each AgifOBP for a variety of different ligands, we monitored the decrease in 1-NPN fluorescence due to the ability of different odorants to displace 1-NPN and determined the Ki value for each compound. To determine the dissociation constants, the intensity values corresponding to the maximum fluorescence emissions were plotted against the cumulative 1-NPN concentration. The amount of bound ligand was calculated from the fluorescence intensity values by assuming that the protein was 100% active, with a stoichiometry of 1:1 protein: ligand at saturation. The curves were linearized using Scatchard plots. The value of K1-NPN was estimated on a direct plot by nonlinear regression with an equation corresponding to a single binding site using Prism 7 (GraphPad Software, Inc., United States), and the IC50 was defined as the concentration of a competitor that caused a 50% reduction in fluorescence intensity. The dissociation constants of the inhibitors (Ki) were calculated according to the formula Ki = [IC50]/(1+[1-NPN]/K1-NPN), in which [1-NPN] represents the free 1-NPN concentration and K1-NPN represents the dissociation constant for AgifOBPs/1-NPN ([Ban et al., 2003]; [Zhong et al., 2012]; [Sun et al., 2016]; [Fan et al., 2017]; [Qin et al., 2020]; [Wang et al., 2021b]). All fluorescence competitive binding assays were performed in three independent replicates, and Ki dates are present as means ± SD.
(§2) FIGURE 5 Expression and binding properties of AgifOBP7 and AgifOBP9 with candidate ligands. (A) Expression and purification of AgifOBP7, (B) Expression and purification of AgifOBP9. Line M: molecular weight PR 1910 (11–180 KDa) Marker, 11, 17, 25, 35, 48, 63, 75, 100, 135, 180 KDa; IN: Induced pET-28a (+)/AgifOBP7/9; Super: pET-28a (+)/AgifOBP7/9 Supernatant; IB: pET-28a (+)/AgifOBP7/9 Inclusion body; Pur: Purified pET-28a (+)/AgifOBP7/9 without His-tag. (C,D) Binding curves of AgifOBP7 and AgifOBP9 with N-phenyl-1-naphthylamine (1-NPN) in 50 mM Tris-HCl buffer (pH 7.4). (E,F) Competitive binding curves of AgifOBP7 and AgifOBP9 to components of aphid alarm pheromones ((E)-beta-farnesene, (-)-α-pinene, (-)-β-pinene, (+)-limonene, (E)-beta-farnesene derivative (CAU-II-11); aphid sexual pheromone (4aSR 7SR 7aRS)-nepetalactone, the volatiles of wheat green leaf (cis-3-hexen-1-ol) and aphid induced plant main volatiles (methyl salicylate, 6-methyl-5-hepten-2-one). A mixture of the recombinant protein and N-phenyl-1-naphthylamine (1-NPN) in 50 mM Tris-HCl buffer (pH 7.4) at the concentration of 2 μM was titrated with 1 mM solutions of each competing ligand to a final concentration range of 2–16 μM. Fluorescence values are presented as percent of the values in the absence of competitor. Date are the means ± SD of three independent experiments.

AgifOBP7 [2] = molecular target: T2, AgifOBP7 (Aphidius gifuensis, UniProt A0A3S9LWE5); test: Fluorescence competitive binding assay (1-NPN displacement) with recombinant AgifOBP7; details: for binding to AgifOBP7 in words: fluorescence competitive binding assay
Method: as §1, §2

AgifOBP7 [3] = molecular target: T2, AgifOBP7; test: Binding of fluorescent probe 1-NPN to AgifOBP7; details: 2 μM protein, 50 mM Tris-HCl pH 7.4; read-out: dissociation constant of AgifOBP7/1-NPN complex
Method: (§3) Fluorescence intensity was recorded in a right angle configuration on a Lengguang 970CRT spectrofluorimeter (Shanghai Jingmi, China) at room temperature using a 1 cm light path fluorimeter quartz cuvette. A slit width of 10 nm was selected for both excitation and emission. The measured fluorescence intensities were corrected for both blank signals due to protein emission and scattered excitation light. The spectral data were processed using the software 970CRT 2.0l. Fluorescence binding experiments were conducted in […] Tris-HCl buffer, pH 7.4, at room temperature. […] The fluorescence of 1-NPN was excited at 337 nm, and emission was recorded between 350 and 500 nm. Spectra were recorded with a high-speed scan. […] To estimate the binding affinities of each AgifOBP for a variety of different ligands, we monitored the decrease in 1-NPN fluorescence due to the ability of different odorants to displace 1-NPN and determined the Ki value for each compound. To determine the dissociation constants, the intensity values corresponding to the maximum fluorescence emissions were plotted against the cumulative 1-NPN concentration. The amount of bound ligand was calculated from the fluorescence intensity values by assuming that the protein was 100% active, with a stoichiometry of 1:1 protein: ligand at saturation. […]

AgifOBP9 [4] = molecular target: T1, AgifOBP9; test: Binding of fluorescent probe 1-NPN to AgifOBP9; details: 2 μM protein, 50 mM Tris-HCl pH 7.4; read-out: dissociation constant of AgifOBP9/1-NPN complex
Method: as §3

[5] = displacement of 1-NPN, 2 μM protein, Tris-HCl pH 7.4, room temperature, read-out: OBP9 IC50
[6] = displacement of 1-NPN, 2 μM protein, read-out: OBP9 Ki
[7] = displacement of 1-NPN, 2 μM protein, Tris-HCl pH 7.4, room temperature, read-out: OBP7 IC50
[8] = displacement of 1-NPN, 2 μM protein, Tris-HCl pH 7.4, Ki = [IC50]/(1+[1-NPN]/K1-NPN), means ± SD, three replicates, read-out: OBP7 Ki
[9] = OBP9 Ki, displacement of 1-NPN, 2 μM protein

T1 sequence (A0A3Q9EL79 entry or part of it L121S): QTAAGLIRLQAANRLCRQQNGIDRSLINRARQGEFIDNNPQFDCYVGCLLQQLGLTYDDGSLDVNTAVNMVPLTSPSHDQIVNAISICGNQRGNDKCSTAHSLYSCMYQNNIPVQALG
T2 sequence (A0A3S9LWE5 entry or part of it): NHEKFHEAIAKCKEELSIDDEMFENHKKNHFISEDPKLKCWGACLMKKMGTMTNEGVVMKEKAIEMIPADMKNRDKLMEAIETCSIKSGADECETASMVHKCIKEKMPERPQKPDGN

Compound | IC50 (AgifOBP9 [1]; [5]) | Ki (AgifOBP9 [1]; [6]) | IC50 (AgifOBP7 [2]; [7]) | Ki (AgifOBP7 [2]; [8]) | binding to AgifOBP7 in words (AgifOBP7 [2]) | IC50 (AgifOBP9 [1]) | Ki (AgifOBP9 [1]; [9]) | IC50 (AgifOBP7 [2]) | Ki (AgifOBP7 [2]) | further results
C=C(C)C1CC=C(C)CC1 (single isomer, unassigned; (+)) [(+)-Limonene] | 12.8 ± 0.25 µM | 3.32 ± 0.06 µM | > 30 µM | > 30 µM | not much |  |  |  |  | Ki (AgifOBP9 [1]; displacement of 1-NPN, 2 μM protein, listed as (+)-limonene, read-out: OBP9 Ki): < 10 µM
c1ccc(Nc2cccc3ccccc23)cc1 [1-NPN, N-phenyl-1-naphthylamine] |  |  |  |  |  |  |  |  |  | Kd (AgifOBP7 [3]): 1.69 ± 0.27 µM; Kd (AgifOBP9 [4]): 0.69 ± 0.24 µM
CC(=O)CCC=C(C)C [6-Methyl-5-hepten-2-one] |  |  |  |  | not much | 22.3 ± 3.38 µM | < 10 µM and 5.76 µM | > 30 µM | > 30 µM | 
CC1=COC(=O)[C@H]2[C@@H]1CC[C@@H]2C [(4aSR 7SR 7aRS)-Nepetalactone] | 9.03 ± 0.31 µM | 2.33 ± 0.08 µM | > 30 µM | 16.1 ± 3.49 µM |  |  |  |  |  | Ki (AgifOBP9 [1]; displacement of 1-NPN, 2 μM protein, listed as (4aSR 7SR 7aRS)-nepetalactone, read-out: OBP9 Ki): < 10 µM
CC1=CCC2CC1C2(C)C (stereo not drawn) [(-)-α-Pinene] | 24.1 ± 3.42 µM | 6.22 ± 0.88 µM | > 30 µM | > 30 µM | not much |  |  |  |  | Ki (AgifOBP9 [1]; displacement of 1-NPN, 2 μM protein, listed as (-)-α-pinene, read-out: OBP9 Ki): < 10 µM
C=C1CCC2CC1C2(C)C (stereo not drawn) [(-)-β-Pinene] | 11.9 ± 1.27 µM | 3.06 ± 0.33 µM | > 30 µM | > 30 µM | not much |  |  |  |  | Ki (AgifOBP9 [1]; displacement of 1-NPN, 2 μM protein, listed as (-)-β-pinene, read-out: OBP9 Ki): < 10 µM
C=CC(=C)CC/C=C(\C)CCC=C(C)C [(E)-β-Farnesene] | 17.8 ± 1.69 µM | 4.6 ± 0.43 µM | > 30 µM | 20.3 ± 1.99 µM |  |  |  |  |  | Ki (AgifOBP9 [1]; displacement of 1-NPN, 2 μM protein, listed as EBF, read-out: OBP9 Ki): < 10 µM
COc1cccc(C(=O)OC/C=C(\C)CCC=C(C)C)c1O [CAU-II-11, (E)-3,7-dimethylocta-2,6-dien-1-yl-2-hydroxy-3-methoxybenzoate] |  |  |  |  |  | 4.15 ± 0.33 µM | 1.07 ± 0.08 µM | 18.6 ± 1.73 µM | 8.5 ± 0.73 µM | 
COC(=O)c1ccccc1O [Methyl salicylate] |  |  |  |  | not much | 13.3 ± 2.99 µM | < 10 µM and 3.43 µM | > 30 µM | > 30 µM | 
CC/C=C\CCO [cis-3-Hexenol] |  |  |  |  | not much | 17 ± 0.33 µM | < 10 µM and 4.39 µM | > 30 µM | > 30 µM | 
